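Method: 48-hour compound exposure of cells in 96-well plates, five concentrations, linear interpolation of endpoints. Abbreviation: GI50, concentration required for 50% inhibition of growth.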 Calls of active or inactive are those of the source. No stated cut-off is given here; in the data, active = GI50 up to about 1.1 µM and inactive = higher.
What was measured:
Experiment in all cases: inhibition of tumour cell growth, NCI panel, 48 h
A549 = tested on: A549
K562 = tested on: K562
LOX IMVI = tested on: LOX IMVI
M14 = tested on: M14
MCF7 = tested on: MCF7
MDA-MB-231 = tested on: MDA-MB-231
MDA-MB-435 = tested on: MDA-MB-435
NCI/ADR-RES = tested on: NCI/ADR-RES
OVCAR-3 = tested on: OVCAR-3
OVCAR-4 = tested on: OVCAR-4
OVCAR-5 = tested on: OVCAR-5
RPMI-8226 = tested on: RPMI-8226
SF-268 = tested on: SF-268
SK-MEL-5 = tested on: SK-MEL-5
SR = tested on: SR
U-251 = tested on: U-251
UACC-62 = tested on: UACC-62
UO-31 = tested on: UO-31
NCI-H226 = tested on: NCI-H226
SNB-75 = tested on: SNB-75

| SMILES | GI50 (A549) | GI50 (K562) | GI50 (LOX IMVI) | GI50 (M14) | GI50 (MCF7) | GI50 (MDA-MB-231) | GI50 (MDA-MB-435) | GI50 (NCI/ADR-RES) | GI50 (OVCAR-3) | GI50 (OVCAR-4) | GI50 (OVCAR-5) | GI50 (RPMI-8226) | GI50 (SF-268) | GI50 (SK-MEL-5) | GI50 (SR) | GI50 (U-251) | GI50 (UACC-62) | GI50 (UO-31) | GI50 (NCI-H226) | GI50 (SNB-75) |
| --- | --- | --- | --- | --- | --- | --- | --- | --- | --- | --- | --- | --- | --- | --- | --- | --- | --- | --- | --- | --- |
| N#Cc1cc(N(CCCl)CCCl)c([N+](=O)[O-])cc1[N+](=O)[O-] | 83.8 µM (inactive) | > 100 µM (inactive) | 98.2 µM (inactive) | > 100 µM (inactive) | 86.3 µM (inactive) | > 100 µM (inactive) | > 100 µM (inactive) | > 100 µM (inactive) | > 100 µM (inactive) | > 100 µM (inactive) | > 100 µM (inactive) | 38.2 µM (inactive) | > 100 µM (inactive) | > 100 µM (inactive) | 2.89 µM (inactive) | > 100 µM (inactive) | > 100 µM (inactive) | > 100 µM (inactive) | – | – |
| Oc1ccc2oc3c(O)c4ccccc4cc3c2c1 | 24.9 µM (inactive) | 0.0632 µM (active) | 4.08 µM (inactive) | 3.49 µM (inactive) | 3.33 µM (inactive) | 12.8 µM (inactive) | 0.948 µM (active) | 3.03 µM (inactive) | 3.53 µM (inactive) | 1.93 µM (inactive) | – | 1.31 µM (inactive) | 5.87 µM (inactive) | 2.85 µM (inactive) | 1.72 µM (inactive) | 4.86 µM (inactive) | 0.121 µM (active) | 0.695 µM (active) | – | – |
| Cc1cc(S(=O)(=O)Nc2nc(N)n[nH]2)c(S)cc1Cl | > 10 µM (inactive) | > 10 µM (inactive) | > 10 µM (inactive) | > 10 µM (inactive) | > 10 µM (inactive) | > 10 µM (inactive) | > 10 µM (inactive) | > 10 µM (inactive) | > 10 µM (inactive) | > 10 µM (inactive) | > 10 µM (inactive) | > 10 µM (inactive) | > 10 µM (inactive) | > 10 µM (inactive) | – | > 10 µM (inactive) | > 10 µM (inactive) | – | > 10 µM (inactive) | > 10 µM (inactive) |
| CC1SC2(CCCCC2)N(NC(=O)CSc2nc3ccc(Cl)cc3c(=O)n2-c2ccccc2)C1=O (stereo not given) | 28.8 µM (inactive) | 19.5 µM (inactive) | 19.5 µM (inactive) | 20 µM (inactive) | 15.3 µM (inactive) | 18.3 µM (inactive) | 23.4 µM (inactive) | 22.1 µM (inactive) | 15.6 µM (inactive) | 30.4 µM (inactive) | 25.7 µM (inactive) | – | 25.8 µM (inactive) | 14.3 µM (inactive) | – | 17.5 µM (inactive) | 18 µM (inactive) | 21.1 µM (inactive) | – | 20.7 µM (inactive) |
| C[C@@H](C(=O)O)N1C(c2ccco2)=C(/C(C=O)=C\c2ccco2)C(=O)/C1=C\c1ccco1 | > 100 µM (inactive) | > 100 µM (inactive) | > 100 µM (inactive) | > 100 µM (inactive) | > 100 µM (inactive) | > 100 µM (inactive) | > 100 µM (inactive) | > 100 µM (inactive) | > 100 µM (inactive) | > 100 µM (inactive) | > 100 µM (inactive) | > 100 µM (inactive) | > 100 µM (inactive) | > 100 µM (inactive) | – | > 100 µM (inactive) | > 100 µM (inactive) | > 100 µM (inactive) | – | – |
| CCCCSC1=N/C(=C\c2ccc(N(C)C)cc2)C(=O)N1 | 17.3 µM (inactive) | 44.8 µM (inactive) | 28.6 µM (inactive) | 38.9 µM (inactive) | 30.5 µM (inactive) | 24 µM (inactive) | 28.6 µM (inactive) | 82.6 µM (inactive) | 27 µM (inactive) | 21 µM (inactive) | 24.4 µM (inactive) | 16.7 µM (inactive) | 32.8 µM (inactive) | 50.5 µM (inactive) | – | 18.4 µM (inactive) | 20.7 µM (inactive) | – | 18 µM (inactive) | 35.5 µM (inactive) |
| COc1ccc(C2C3=C(N=C4SC(C(C)=O)=C(C)N42)c2ccccc2CC3)cc1 (stereo not given) | 83 µM (inactive) | – | 63.8 µM (inactive) | > 100 µM (inactive) | 92.7 µM (inactive) | > 100 µM (inactive) | > 100 µM (inactive) | > 10 µM (inactive) | > 100 µM (inactive) | > 100 µM (inactive) | > 100 µM (inactive) | 4.91 µM (inactive) | > 100 µM (inactive) | 50.5 µM (inactive) | – | 57.9 µM (inactive) | 45.7 µM (inactive) | 91.6 µM (inactive) | 18.7 µM (inactive) | > 100 µM (inactive) |
| CCOC(=O)c1cc([N+](=O)[O-])c(Sc2ncnc3nc[nH]c23)c([N+](=O)[O-])c1 | 20.5 µM (inactive) | 0.53 µM (active) | 0.378 µM (active) | 2.31 µM (inactive) | 1.24 µM (inactive) | 4.92 µM (inactive) | 2.47 µM (inactive) | 2.82 µM (inactive) | 1.39 µM (inactive) | – | 1.66 µM (inactive) | 0.865 µM (active) | 4.5 µM (inactive) | 10.7 µM (inactive) | 3.24 µM (inactive) | 6.82 µM (inactive) | 2.46 µM (inactive) | 2.62 µM (inactive) | 5.61 µM (inactive) | – |
| C=CC(C)(C)/C=C/c1ccc(O)cc1 | 29.1 µM (inactive) | – | 21.9 µM (inactive) | 43.1 µM (inactive) | 35.7 µM (inactive) | 36.4 µM (inactive) | 37.9 µM (inactive) | 47.9 µM (inactive) | 28.8 µM (inactive) | 55.5 µM (inactive) | 46.6 µM (inactive) | 27.5 µM (inactive) | 33.9 µM (inactive) | 38.5 µM (inactive) | – | 30 µM (inactive) | 42.7 µM (inactive) | – | – | – |
| CC/C(=N\NC(=O)c1cccnc1)c1ccc2c(c1)OCCO2 | > 100 µM (inactive) | 76 µM (inactive) | > 100 µM (inactive) | > 100 µM (inactive) | 66.5 µM (inactive) | 74.8 µM (inactive) | 34.5 µM (inactive) | > 100 µM (inactive) | > 100 µM (inactive) | > 100 µM (inactive) | > 100 µM (inactive) | > 100 µM (inactive) | > 100 µM (inactive) | 33.7 µM (inactive) | – | > 100 µM (inactive) | 87.9 µM (inactive) | > 100 µM (inactive) | > 100 µM (inactive) | > 100 µM (inactive) |
| COC(=O)c1ccccc1C1CN=NC12Cc1c(C)c3c(c(C)c1C2=O)CCC3 (stereo not given) | > 100 µM (inactive) | > 100 µM (inactive) | > 100 µM (inactive) | > 100 µM (inactive) | > 100 µM (inactive) | 23.6 µM (inactive) | > 100 µM (inactive) | > 100 µM (inactive) | > 100 µM (inactive) | > 100 µM (inactive) | > 100 µM (inactive) | – | > 100 µM (inactive) | > 100 µM (inactive) | – | > 100 µM (inactive) | > 100 µM (inactive) | > 100 µM (inactive) | > 100 µM (inactive) | 40.6 µM (inactive) |
| N#CC(Nc1ccccc1)c1ccc(C(C#N)Nc2ccccc2)cc1 (stereo not given) | > 100 µM (inactive) | 0.724 µM (active) | 1.17 µM (inactive) | 13.7 µM (inactive) | 29 µM (inactive) | > 100 µM (inactive) | 13.7 µM (inactive) | 46.7 µM (inactive) | 35.9 µM (inactive) | > 100 µM (inactive) | > 100 µM (inactive) | – | > 100 µM (inactive) | 20.3 µM (inactive) | – | 25.4 µM (inactive) | 3.57 µM (inactive) | 21.1 µM (inactive) | > 100 µM (inactive) | – |
| COc1ccc(-c2nc(-c3cnccn3)n(COCCO)n2)cc1 | > 100 µM (inactive) | > 100 µM (inactive) | > 100 µM (inactive) | > 100 µM (inactive) | > 100 µM (inactive) | > 100 µM (inactive) | > 100 µM (inactive) | > 100 µM (inactive) | > 100 µM (inactive) | > 100 µM (inactive) | > 100 µM (inactive) | > 100 µM (inactive) | > 100 µM (inactive) | > 100 µM (inactive) | > 100 µM (inactive) | > 100 µM (inactive) | > 100 µM (inactive) | > 100 µM (inactive) | – | – |
| c1ccc2c(c1)Nc1nc3nonc3nc1N2 | > 100 µM (inactive) | > 100 µM (inactive) | > 100 µM (inactive) | > 100 µM (inactive) | > 100 µM (inactive) | > 100 µM (inactive) | > 100 µM (inactive) | > 100 µM (inactive) | – | 62.5 µM (inactive) | > 100 µM (inactive) | > 100 µM (inactive) | > 100 µM (inactive) | > 100 µM (inactive) | > 100 µM (inactive) | > 100 µM (inactive) | > 100 µM (inactive) | > 100 µM (inactive) | > 100 µM (inactive) | – |
| Nc1n[n+]2cc(-c3ccccc3)n(CC(=O)c3ccccc3)c2s1 | > 100 µM (inactive) | 29.7 µM (inactive) | 17.9 µM (inactive) | 21.3 µM (inactive) | 10.8 µM (inactive) | 29.5 µM (inactive) | 36.9 µM (inactive) | > 100 µM (inactive) | 23.8 µM (inactive) | – | 18.8 µM (inactive) | 17.1 µM (inactive) | 20.3 µM (inactive) | 23.1 µM (inactive) | 18.4 µM (inactive) | 16.1 µM (inactive) | 30.5 µM (inactive) | 76.2 µM (inactive) | 32.4 µM (inactive) | – |
| O=c1cc(N2CCOCC2)[nH]c(=O)n1-c1ccc(F)cc1 | – | > 100 µM (inactive) | > 100 µM (inactive) | > 100 µM (inactive) | > 100 µM (inactive) | > 100 µM (inactive) | > 100 µM (inactive) | > 100 µM (inactive) | > 100 µM (inactive) | > 100 µM (inactive) | > 100 µM (inactive) | > 100 µM (inactive) | > 100 µM (inactive) | – | – | > 100 µM (inactive) | > 100 µM (inactive) | – | > 100 µM (inactive) | > 100 µM (inactive) |
